Assay results published in US8268836B2, “Compound useful as a c-Met inhibitor” (Eli Lilly and Company, priority 2010, dated 2012).
Where a name gives a salt, the structure may show the parent alone.

Experiments:
[1] = target: cMet enzyme (Homo sapiens, UniProt P08581); assay: cMet Homogeneous Time Resolved Fluorescence (HTRF) in vitro assay; assay type: biochemical; conditions: relative IC50; read-out: c-Met IC50 (HTRF)
Text: This assay is based on HTRF technology and it is used to detect the phosphorylation of biotin labeled tyrosine peptide by cMet enzyme. After the reaction is completed, XL665 labeled streptavidin is used to recognize the biotin unit and a Europium (Eu3+) labeled anti-phospho-tyrosine antibody is used to recognize the phosphorylated tyrosine. The detection process relies on the transfer of energy between the excited Eu3+ and the XL665 labeled streptavidin. The aim of this protocol is to calculate the ability of test compounds to inhibit the phosphorylation of the product of this reaction and calculate their relative IC50 values.
A reference compound, if desired, may be prepared as a 1 mM stock solution in 100% DMSO and test compounds are prepared as 10 mM stock solutions in 100% DMSO. 1 mM reference compound and 10 mM test compounds are pre-diluted to 8 μM and 80 μM 10% DMSO solutions in a 96-well dilution plate. Compounds are serially diluted (1:3) using Tecan Freedom EVO 200 and 10-point dilution curves are generated for each of the compounds tested. 10 μL of serially diluted compounds are transferred to a 96-well assay plate using Temo (Tecan). […] The assay plate is incubated at RT for 60 min before reading the fluorescence signals at 620 nm emission and 665 nm […] in a Victor3 instrument (PerkinElmer Corporation). […]

[2] = target: T1, Met (pY1349) in NCl-H460 cells (Homo sapiens, UniProt P08581); assay: HGF stimulated Met (pY1349) NCI-H460 cell-based ELISA; conditions: HGF 100 ng/mL stimulated NCI-H460 cells; read-out: relative IC50, H460 assay (c-Met phosphorylation)
T1 construct: host or cells: NCI-H460
Method: NCl—H460 cells (purchased from ATCC) are cultured in RPMI 1640 media (Invitrogen) supplemented with 10% Fetal Bovine Serum (FBS) and plated (prior to becoming 70% confluent) in 96-well flat-bottom plates at a density of 20,000 cells per well in 80 μL volume. The cells are then incubated overnight in a cell culture incubator (5% CO2, 95% Relative Humidity (RH) and 37° C.) and allowed to attach to the plate. The following morning the cells are washed with 2 volumes of a Reduced Serum Media (RSM, RPMI 1640 media supplemented with 0.5% FBS). After removal of the last wash, 80 μL of RSM is added to each well of the cell plates. The cell plates are incubated for 2.5 h in a cell culture incubator, and then dosed with compounds. Compound inhibitors are first solubilized at 10 mM in 100% DMSO and then diluted to 100 μM with 2% DMSO RSM. […] After 1 h capture (at RT) the MSD® plate wells are washed with 1× Tris Wash Buffer, and then 150 μL of 1× Read Buffer T (with surfactant, MSD®) is added. Immediately after the addition of the Read Buffer, the plates are analyzed with a SECTOR 6000 MSD® Imager plate reader. Relative IC50 values are determined using MSD activity units by calculating percent inhibition with respect to on-plate “MIN” and “MAX” controls and then fitting the percent inhibition values and ten-point dose response data to a four-parameter logistic equation.

Chain of cMet enzyme (P08581 25-1390): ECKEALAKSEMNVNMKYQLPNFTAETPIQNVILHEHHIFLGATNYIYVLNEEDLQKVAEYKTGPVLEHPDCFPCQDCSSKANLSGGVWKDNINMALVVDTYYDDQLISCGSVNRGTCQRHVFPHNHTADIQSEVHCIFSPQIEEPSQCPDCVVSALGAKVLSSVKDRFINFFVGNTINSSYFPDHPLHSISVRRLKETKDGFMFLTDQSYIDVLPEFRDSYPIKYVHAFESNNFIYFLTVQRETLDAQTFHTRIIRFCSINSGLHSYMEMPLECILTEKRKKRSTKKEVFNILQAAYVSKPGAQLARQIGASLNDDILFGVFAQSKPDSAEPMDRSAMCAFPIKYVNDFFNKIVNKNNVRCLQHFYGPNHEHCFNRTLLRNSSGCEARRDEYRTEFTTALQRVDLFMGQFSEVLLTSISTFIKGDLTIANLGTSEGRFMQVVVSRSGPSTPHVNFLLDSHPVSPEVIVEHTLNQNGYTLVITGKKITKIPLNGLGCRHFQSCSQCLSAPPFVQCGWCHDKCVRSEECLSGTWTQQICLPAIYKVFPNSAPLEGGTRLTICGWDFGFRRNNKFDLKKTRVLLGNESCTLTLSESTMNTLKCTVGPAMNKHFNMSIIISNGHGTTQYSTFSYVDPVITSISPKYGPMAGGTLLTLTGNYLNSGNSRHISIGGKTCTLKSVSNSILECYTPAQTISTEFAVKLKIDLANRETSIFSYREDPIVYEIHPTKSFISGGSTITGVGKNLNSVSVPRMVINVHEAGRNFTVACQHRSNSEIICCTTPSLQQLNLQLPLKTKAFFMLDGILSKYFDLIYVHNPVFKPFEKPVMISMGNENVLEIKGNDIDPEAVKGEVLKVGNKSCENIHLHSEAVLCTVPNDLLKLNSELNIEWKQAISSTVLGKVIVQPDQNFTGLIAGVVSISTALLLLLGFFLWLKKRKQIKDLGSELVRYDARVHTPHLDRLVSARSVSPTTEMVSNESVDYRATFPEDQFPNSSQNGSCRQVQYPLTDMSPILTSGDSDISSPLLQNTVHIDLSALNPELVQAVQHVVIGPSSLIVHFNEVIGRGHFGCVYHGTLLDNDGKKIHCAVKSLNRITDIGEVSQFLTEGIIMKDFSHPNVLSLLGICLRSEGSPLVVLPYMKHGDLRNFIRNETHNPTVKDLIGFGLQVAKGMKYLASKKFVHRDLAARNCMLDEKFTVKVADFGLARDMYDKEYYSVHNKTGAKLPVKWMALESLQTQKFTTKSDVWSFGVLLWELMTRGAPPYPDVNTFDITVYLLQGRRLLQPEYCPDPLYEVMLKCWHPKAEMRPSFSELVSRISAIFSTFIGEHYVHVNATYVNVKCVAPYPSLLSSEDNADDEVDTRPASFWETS
T1 sequence (P08581 25-1390): as above

Cn1cc(-c2ccc3nnc(Sc4ccc5nn(C)cc5c4)n3n2)cn1 [mesylate salt form of example 1]
IC50 [1]: 25 nM | IC50 [2]: 38 nM
